In publication PMC7618036, “An oral heme oxygenase inhibitor targets immunosuppressive perivascular macrophages in preclinical models of cancer” (Science translational medicine, 2025):

Key:
[1] = test system: CD8^+ T-cells in MMTV-PyMT tumors; test: Flow cytometry of the TME of MMTV-PyMT tumors after 36 h treatment; format: in vivo, mouse; conditions: single-agent therapy
Protocol: At 36 h post treatment initiation of treatment mice were sacrificed and tumors were harvested and analyzed. (A) Schematic representing the dosing strategy. (B) The fold change of tumor growth over 36 h post initiation of treatment. (C-G) Tumors were enzyme-digested to release single cells which were analyzed for their live (7AAD^-) stromal cell composition using flow cytometry (n=5 tumors per group) (C) and CD8^+ T-cells (D). Gating strategy (left panel) and quantitation of CD8^+ T-cell subsets based on CD62L and CD44 expressions (right panel; TCM; T central memory cells, TEM; T effector memory cells, Teff; T effectors cells) (E), and the ability of the tumoral CD8^+ T-cells to secrete IFNγ post ex vivo exposure to PMA/ionomycin treatment (F). […] Scale bar is 100 µm and white arrows indicate infiltrating CD8^+ T-cells. […] Image in panel (A) was created using BioRender. Bar charts show the mean, error bars SD, and the dots show individual data points from individual tumors and mice. Gemc.; gemcitabine. * P<0.05, ** P<0.01, *** P<0.001.
MN-MCA1 sarcoma cells were orthotopically implanted into syngeneic C57Bl/6 mice for tumors. A total of 2.5 x 10^5 cells in 100 μL RPMI were injected subcutaneously into female mice. […] When tumors became palpable, volumes were measured every 2-4 days using digital caliper measurements of the long (L) and short (S) dimensions of the tumor. […]

MMTV-PyMT tumors = test: Tumor growth in MMTV-PyMT mice bearing established spontaneous tumors; format: in vivo, mouse; conditions: single agent, i.p. 25 µMol/kg/day
Protocol: Vertical dashed black lines mark the start of treatment (day 0) and horizontal red line marks 250 mm^3. Solid lines represent individual tumors and mice. Images in panel (A) and (B) were created using BioRender. ** P<0.01.
(D-G) The MMTV-PyMT mice in (B) were evaluated for evidence of toxicity, including weight change from treatment initiation (D), end of treatment (day 21) plasma ratio of AST:ALT enzymes (E), blood circulating immune cells assessed using flow cytometry (F) and pathology assessment of inflammatory cell infiltrate in the lungs alongside an additional cohort or WT non-tumor bearing mice given dual treatment for 21 days and then assessed at treatment cessation or 30 days after treatment cessation (G). Image in panel (A) was created using BioRender. Bar charts show the mean, error bars SD, and the dots show individual data points from individual tumors and mice. Line charts display the mean and SEM. Gemc.; gemcitabine. * P<0.05, ** P<0.01.
MN-MCA1 sarcoma cells were orthotopically implanted into syngeneic C57Bl/6 mice for tumors. A total of 2.5 x 10^5 cells in 100 μL RPMI were injected subcutaneously into female mice. In MMTV-PyMT mice, tumors arose spontaneously. When tumors became palpable, volumes were measured every 2-4 days using digital caliper measurements of the long (L) and short (S) dimensions of the tumor. […]

Compound | abundance of CD8^+ T-cells in the TME [1] | tumor growth (MMTV-PyMT tumors)
Nc1ccn([C@@H]2O[C@H](CO)[C@@H](O)C2(F)F)c(=O)n1 [gemcitabine] | increase in the abundance of CD8^+ T-cells | –
Sn (IV) mesoporphyrin IX dichloride [SnMP] | – | did not control tumor growth
